In patent publication US5622947A, “Benzoheterocyclic compounds and vasopressin antagonist and oxytocin antagonist compositions containing a benzoheterocyclic compound” (Otsuka Pharmaceutical Co., Ltd., priority 1992, dated 1997) one finds IC50 data, which are given here for 16 molecules.

Assay [1] deals with T1, Oxytocin receptor (uterin muscle membrane preparation) (Rattus norvegicus, UniProt P70536).
T1 construct: was homogenized, which was used as a membrane; from tissue; host or cells: uterine muscle membranes from diethylstilbestrol-treated animals
T1 sequence (P70536 1-388): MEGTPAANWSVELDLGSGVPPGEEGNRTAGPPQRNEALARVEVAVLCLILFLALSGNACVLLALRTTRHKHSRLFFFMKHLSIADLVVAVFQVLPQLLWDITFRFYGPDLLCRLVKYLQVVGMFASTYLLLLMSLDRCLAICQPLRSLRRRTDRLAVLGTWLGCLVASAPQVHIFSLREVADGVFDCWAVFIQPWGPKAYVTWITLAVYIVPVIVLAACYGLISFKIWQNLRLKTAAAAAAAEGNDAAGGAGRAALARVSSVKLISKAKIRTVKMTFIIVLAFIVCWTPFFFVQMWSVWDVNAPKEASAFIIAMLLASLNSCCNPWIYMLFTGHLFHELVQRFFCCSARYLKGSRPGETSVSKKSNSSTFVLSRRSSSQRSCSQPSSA
In words: Oxytocin receptor binding assay. The note with it: [3H]-oxytocin 10^-9 M, 25°, one hour, pH 8.0, uterin muscle membrane, DES-treated. The method, boiled down: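 Rat uterine membranes (0.2 mg; DES-primed day before) incubated 1 h at 25° with [3H]-oxytocin (10^-9 M) and compound (10^-9 to 10^-5 M) in 100 mM Tris-HCl pH 8.0, 5 mM MgCl2, 1 mM EDTA, 0.1% BSA. Filter-bound radioactivity counted; nonspecific with 5×10^-6 M oxytocin; IC50 reported.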

Assay [2] has as its target T2, V2 Recepter (rat kidney plasma membrane preparations) (Rattus norvegicus, UniProt Q00788).
T2 construct: rat kidney plasma membrane preparations; from tissue; host or cells: rat kidney plasma membranes
Kind of assay: V2 Recepter binding assay. The note with it: [3H]-Arg-vasopressin 4×10^-10 M, 4° C., pH 8.0, rat kidney plasma membrane. The method, boiled down: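 Rat kidney plasma membranes incubated with [^3H]-Arg-vasopressin (4×10^-10 M) and test compound (10^-10 to 10^-5 M) for 3 h at 4 °C in 100 mM Tris-HCl pH 8.0 with 5 mM MgCl2, 1 mM EDTA, 0.1% BSA. Bound label by filtration and scintillation counting; nonspecific binding with 10^-6 M vasopressin; IC50 reported.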

Assay [3] concerns the target T3, V1 Recepter (rat liver plasma membrane preparations) (Rattus norvegicus, UniProt P30560).
T3 construct: rat liver plasma membrane preparations; from tissue; host or cells: rat liver plasma membranes
Kind of assay: V1 Recepter binding assay. The note with it: [3H]-Arg-vasopressin 2×10^-10 M, 37° C., 10 minutes, pH 8.0, rat liver plasma membrane. On the procedure:
Test-1: V1 Recepter binding assay
By using rat liver plasma membrane preparations prepared according to Ichiraha's method [by Akira Ichihara: J. Bio. Chem., 258, 9283 (1983)], the plasma membrane (50,000 dpm, 2×10^-10 M) of [^3 H]-Arg-vasopressin and a test compound (60 μg, 10^-8 to 10^-4 M) were incubated at 37° C. for 10 minutes in 250 μl (in total volume) of 100 mM Tris-HCl buffer (pH=8.0), containing 5 mM MgCl2, 1 mM EDTA and 0.1% BSA. After the incubation, the mixture was filtered three times by using a glass filter (GF/F) so as to separate the membrane preparation by combining with vasopressin and then washed with the buffer (5 ml). This glass filter was taken out and mixed with a liquid of scintillation cocktail. The amount of [^3 H]-vasopressin combining with the membrane was measured by liquid scintillation counter and the rate of inhibitory effect of the test compound was calculated according to the following equation: […]
C1 : the amount of [^3 H]-vasopressin combining with the membrane in the presence of the test compound of a known amount,
C0 : the amount of [^3 H]-vasopressin combining with the membrane in the absence of the test compound,
B1 : the amount of [^3 H]-vasopressin combining with the membrane in the presence of the excess amount of vasopressin (10^-6 M).
The results are expressed as IC50 value, which is the concentration of the test compound required to achieve the inhitory effect in the rate of 50% and are shown in the following Table 156.

As usually defined, the IC50 is the concentration that gives 50% inhibition. Read a high IC50 as weaker potency.

T3 sequence (P30560 whole entry): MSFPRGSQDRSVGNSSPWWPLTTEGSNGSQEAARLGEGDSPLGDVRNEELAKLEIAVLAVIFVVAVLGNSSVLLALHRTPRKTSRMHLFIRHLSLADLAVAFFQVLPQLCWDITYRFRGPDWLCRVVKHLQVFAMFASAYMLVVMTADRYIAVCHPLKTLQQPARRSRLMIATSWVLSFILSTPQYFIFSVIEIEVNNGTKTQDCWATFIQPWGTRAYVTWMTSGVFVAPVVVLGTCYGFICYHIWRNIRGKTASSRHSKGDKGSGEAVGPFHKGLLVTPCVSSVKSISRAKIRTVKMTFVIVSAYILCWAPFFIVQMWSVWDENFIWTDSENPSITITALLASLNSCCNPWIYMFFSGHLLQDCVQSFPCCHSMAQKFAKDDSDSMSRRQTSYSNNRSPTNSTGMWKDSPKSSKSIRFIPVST
T2 sequence (Q00788 whole entry): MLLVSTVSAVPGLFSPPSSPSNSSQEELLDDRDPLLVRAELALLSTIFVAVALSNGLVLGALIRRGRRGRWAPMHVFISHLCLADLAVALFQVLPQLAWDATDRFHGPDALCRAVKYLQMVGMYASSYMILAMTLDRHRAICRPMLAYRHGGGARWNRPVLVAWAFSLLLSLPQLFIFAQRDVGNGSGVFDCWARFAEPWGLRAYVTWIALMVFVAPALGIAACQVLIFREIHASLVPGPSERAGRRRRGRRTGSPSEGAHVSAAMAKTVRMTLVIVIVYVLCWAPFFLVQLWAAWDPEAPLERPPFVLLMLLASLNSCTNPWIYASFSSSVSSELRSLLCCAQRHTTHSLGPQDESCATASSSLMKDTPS

For the molecule `COc1cc(NC(=O)c2ccccc2Cl)ccc1C(=O)N1CCCC(OCCSc2ncc[nH]2)c2cc(Cl)ccc21` (stereo not drawn) [Example 141, 5-[2-(2-Imidazolyl)thioethoxy]-7-chloro-1-[2-methoxy-4-(2-chlorobenzoylamino)benzoyl]-2,3,4,5-tetrahydro-1H-benzoazepine], the IC50 was found to be 0.193 µM in assay [1], 0.0076 µM in assay [2] and 0.056 µM in assay [3].
Take `COc1cc(NC(=O)c2ccccc2Cl)ccc1C(=O)N1CCCC(OCCS(=O)(=O)c2ccncc2)c2cc(Cl)ccc21` (stereo not drawn) [Example 142, 5-[2-(4-Pyridyl)sulfonylethoxy]-7-chloro-1-[2-methoxy-4-(2-chlorobenzoylamino)benzoyl]-2,3,4,5-tetrahydro-1H-benzoazepine]: the values for the IC50 in assay [1], in assay [2] and in assay [3] were 1.13 µM, 0.038 µM and 0.098 µM, respectively.
On to `COc1cc(NC(=O)c2ccccc2Cl)ccc1C(=O)N1CCCC(OCC[S+]([O-])c2ccncc2)c2cc(Cl)ccc21` (stereo not drawn) [Example 143, 5-[2-(4-Pyridyl)sulfinylethoxy]-7-chloro-1-[2-methoxy-4-(2-chlorobenzoylamino)benzoyl]-2,3,4,5-tetrahydro-1H-benzoazepine], for which the IC50 in assay [1] turned out to be 0.2 µM; in assay [2] it was 0.022 µM; in assay [3], 0.013 µM.
For `COc1cc(NC(=O)c2ccccc2Cl)ccc1C(=O)N1CCCC(OCC[S+]([O-])c2ncc[nH]2)c2cc(Cl)ccc21` (stereo not drawn) [Example 144, 5-[2-(2-Imidazolyl)sulfinylethoxy]-7-chloro-1-[2-methoxy-4-(2-chlorobenzoylamino)benzoyl] 2,3,4,5-tetrahydro-1H-benzoazepine], the IC50 in assay [1] stood at 0.354 µM; in assay [2], 0.0099 µM; in assay [3], 0.055 µM.
On to `COc1cc(NC(=O)c2ccccc2Cl)ccc1C(=O)N1CCCC(OCCS(=O)(=O)c2ncc[nH]2)c2cc(Cl)ccc21` (stereo not drawn) [Example 145, 5-[2-(2-Imidazolyl)sulfonylethoxy]-7-chloro-1-[2-methoxy-4-(2-chlorobenzoylamino)benzoyl]-2,3,4,5-tetrahydro-1H-benzoazepine], for which the IC50 in assay [1] came to 0.849 µM; in assay [2] it was 0.014 µM; in assay [3], 0.091 µM.
The matching figures for `COc1cc(NC(=O)c2ccccc2Cl)ccc1C(=O)N1CCCC(CCN2CCN(S(C)(=O)=O)CC2)c2cc(Cl)ccc21` (stereo not drawn) [Example 146, 5-[2-(4-Methanesulfonyl-1-piperazinyl)ethyl]-7-chloro-1-[2-methoxy-4-(2-chlorobenzoylamino)-benzoyl]-2,3,4,5-tetrahydro-1H-benzoazepine]: 0.154 µM, 0.01 µM and 0.054 µM.
As to `CCOC(=O)N1CCN(CCC2CCCN(C(=O)c3ccc(NC(=O)c4ccccc4Cl)cc3OC)c3ccc(Cl)cc32)CC1` (stereo not drawn) [Example 147, 5-[2-(4-Ethoxycarbonyl-1-piperazinyl)ethyl]-7-chloro-1-[2-methoxy-4-(2-chlorobenzoylamino)-benzoyl]-2,3,4,5-tetrahydro-1H-benzoazepine], the IC50 in assay [1] came to 0.504 µM; in assay [2], 0.014 µM; in assay [3], 0.039 µM.
Regarding `CNC(=O)N1CCN(CCC2CCCN(C(=O)c3ccc(NC(=O)c4ccccc4Cl)cc3OC)c3ccc(Cl)cc32)CC1` (stereo not drawn) [Example 148, 5-[2-(4-Methylaminocarbonyl-1-piperazinyl)ethyl]-7-chloro-1-[2-methoxy-4-(2-chlorobenzoylamino)benzoyl]-2,3,4,5-tetrahydro-1H-benzoazepine], the IC50 in assay [1] stood at 0.225 µM; in assay [2] it was 0.005 µM; in assay [3], 0.054 µM.
Take `COc1cc(NC(=O)c2ccccc2Cl)ccc1C(=O)N1CCCC(OCCNCc2ccccc2)c2cc(Cl)ccc21` (stereo not drawn) [Example 150, 5-(2-Benzylaminoethoxy)-7-chloro-1-[2-methoxy-4-(2-chlorobenzoylamino)benzoyl]-2,3,4,5-tetrahydro-1H-benzoazepine]: the IC50 in assay [1] was found to be 0.471 µM; in assay [2], 0.009 µM; in assay [3] it was 0.016 µM.
Consider `COc1cc(NC(=O)c2ccccc2Br)ccc1C(=O)N1CCCC(OCCNS(=O)(=O)C(F)(F)F)c2cc(Cl)ccc21` (stereo not drawn) [Example 152, 5-(2-Trifluoromethylsulfonylaminoethoxy)-7-chloro-1-[2-methoxy-4-(2-bromobenzoylamino)benzoyl]-2,3,4,5-tetrahydro-1H-benzoazepine], for which the IC50 in assay [1] stood at 1.64 µM; in assay [2], 0.061 µM; in assay [3] it was 0.041 µM.
For the molecule `CCN(CC)CCCNCCOC1CCCN(C(=O)c2ccc(NC(=O)c3ccccc3Cl)cc2OC)c2ccc(Cl)cc21` (stereo not drawn) [Example 153, 5-[2-(3-Diethylaminopropyl)aminoethoxy]-7-chloro-1-[2-methoxy-4-(2-chlorobenzoylamino)benzoyl]-2,3,4,5-tetrahydro-1H-benzoazepine], the IC50 in assay [1] worked out at 0.248 µM; in assay [2], 0.005 µM; in assay [3] it was 0.036 µM.
For the molecule `COc1cc(NC(=O)c2ccccc2Cl)ccc1C(=O)N1CCCC(CC(=O)NCCc2cccn2C)c2cc(Cl)ccc21` (stereo not drawn) [Example 154, 5-[2-(1-Methyl-2-pyrrolyl)ethyl]aminocarbonyl-methyl-7-chloro-1-[2-methoxy-4-(2-chlorobenzoylamino)benzoyl]-2,3,4,5-tetrahydro-1H-benzoazepine], the values for the IC50 in assay [1], in assay [2] and in assay [3] were 0.197 µM, 0.012 µM and 0.021 µM, respectively.
As to `COc1cc(NC(=O)c2ccccc2Cl)ccc1C(=O)N1CCCC(CC(=O)NCCC2CCCN2C)c2cc(Cl)ccc21` (stereo not drawn) [Example 155, 5-[2-(1-Methyl-2-pyrrolidinyl)ethyl]-aminocarbonylmethyl-7-chloro-1-[2-methoxy-4-(2-chlorobenzoylamino)benzoyl]-2,3,4,5-tetrahydro-1H-benzoazepine], the figures for the IC50 in assay [1], in assay [2] and in assay [3] were 0.055 µM, 0.0019 µM and 0.007 µM, respectively.
As to `COc1cc(NC(=O)c2ccccc2Cl)ccc1C(=O)N1CCCC(CC(=O)NCCN2CCCCC2)c2cc(Cl)ccc21` (stereo not drawn) [Example 156, 5-[2-(1-Piperidinyl)ethyl]aminocarbonylmethyl-7-chloro-1-[2-methoxy-4-(2-chlorobenzoylamino)benzoyl]-2,3,4,5-tetrahydro-1H-benzoazepine], the IC50 turned out to be 0.07 µM in assay [1], 0.003 µM in assay [2] and 0.0055 µM in assay [3].
For `COc1cc(NC(=O)c2ccccc2Cl)ccc1C(=O)N1CCCC(CC(=O)N2CCN(CC(=O)N3CCCC3)CC2)c2cc(Cl)ccc21` (stereo not drawn) [Example 157, 5-{4-[(1-Pyrrolidynyl)carbonylmethyl]-1-piperazinyl}carbonylmethyl-7-chloro-1-[2-methoxy-4-(2-chlorobenzoylamino)benzoyl]-2,3,4,5-tetrahydro-1H-benzoazepine], in that order: 0.047 µM, 0.0073 µM and 0.016 µM.
Consider `COc1cc(NC(=O)c2ccccc2Cl)ccc1C(=O)N1CCCC(CC(=O)Nc2ccccc2Cl)c2cc(Cl)ccc21` (stereo not drawn) [Example 158, 5-(2-Chloroanilino)carbonylmethyl-7-chloro-1-[2-methoxy-4-(2-chlorobenzoylamino)benzoyl]-2,3,4,5-tetrahydro-1H-benzoazepine], for which the results for the IC50 in assay [1], in assay [2] and in assay [3] were 0.13 µM, 0.014 µM and 0.031 µM, respectively.
